# What was measured:
# RAW 264.7 cells = assay: AlamarBlue assay for cell viability (cytotoxicity); conditions: read-out: IC50 (cytotoxicity), RAW 264.7 macrophages, 24 h treatment, 6.25-100 µM tested
# [1] = test system: LPS-activated RAW 264.7 macrophages; assay: NO production inhibitory assay (Griess reaction); format: cell-based, murine; conditions: for ED50 (inhibition of LPS-induced NO production): RAW 264.7 macrophages, LPS 1 µg/ml, 24 h, Griess reaction; for NO production by LPS-activated cells: 2.5-40 µM, 30 min before and during LPS 1 µg/ml 24 h; for NO levels produced by non-activated cells: compound alone, no LPS (data not shown)
# Protocol: RAW 264.7 cells seeded in 24-well plates at a density of 5 × 10^5 cells/ml (1 ml) were incubated for 24 h with or without LPS (1 µg/ml) in the absence or presence of the test samples, then NO production was measured indirectly by analysis of nitrite levels using the Griess reaction.
# (§1) To investigate the inhibitory effect of compounds 1h, 1i, and 1n on the LPS-induced inflammatory response, NO levels in the supernatants of RAW 264.7 macrophages incubated with DMSO (vehicle) or compound 1h, 1i, or 1n for 30 min before, and during, incubation for 24 h with LPS (1 µg/ml) were measured by the Griess reaction. […] We next investigated their effect on the expression of iNOS, the NO producing enzyme, using Western blots.
# (§2) Figure 2 Effect of polyenylpyrrole derivatives on the expression of inflammatory mediators in LPS-stimulated RAW 264.7 macrophages. In (A) and (C), the cells (5 × 10^5/ml; 1 ml) were incubated for 30 min with 2.5-40 µM compound 1h, 1i, or 1n or DMSO (vehicle), then LPS (1 µg/ml) was added and incubation continued for 24 h, then NO (A) or IL-6 or TNF-α (C) in the culture medium was assayed by the Griess reaction or ELISA, respectively. In (B), cells (5 × 10^5/ml; 1 ml) were pretreated for 30 min with 2.5-40 µM compound 1h or DMSO, then LPS (1 µg/ml) was added and incubation continued for 24 h, then expression of iNOS and COX-2 was measured by Western blotting. The fold increase is the intensity of the band of interest divided by that of the actin band normalized to the corresponding value for the 0 LPS/0 inhibitor control.
# [2] = test system: LPS-activated RAW 264.7 macrophages; assay: iNOS and COX-2 expression by Western blot; format: cell-based, murine; conditions: 30 min pretreatment, LPS 24 h; for COX-2 expression / LPS-induced iNOS expression: 0-40 µM; for Concentration at which reduction of LPS-induced iNOS expression is significant: Western blot
# Protocol: Cells were washed twice with ice-cold phosphate-buffered saline (PBS) and lysed on ice for 5 min with lysis buffer (20 mM Tris-HCl, pH 7.5, 150 mM NaCl, 1 mM Na 2EDTA, 1 mM EGTA, 1% Triton X-100, 2.5 mM sodium pyrophosphate, 1 mM beta-glycerophosphate, 1 mM Na 3VO4, 1 µg/ml of leupeptin, 1 mM PMSF, protease inhibitor cocktail). The lysate was then centrifuged at 12,000 x g at 4 °C for 10 min and the pellet discarded. Proteins in the supernatant were separated by SDS-PAGE and electrotransferred to a PVDF membrane (EMD Millipore Corporation), which was then blocked by incubation for 1 h at room temperature in blocking buffer [(5% nonfat milk in PBS containing 0.1% Tween 20 (PBST)], then incubated for 2 h at room temperature with the primary antibody diluted in blocking buffer. After three washes in PBST, the membrane was incubated for 1 h at room temperature with an appropriate HRP-conjugated secondary antibody diluted in blocking buffer and developed using an enhanced chemiluminescence Western blot detection system (EMD Millipore Corporation).
# as §1, §2
# [3] = test system: LPS-activated RAW 264.7 macrophages; assay: IL-6 and TNF-α secretion by ELISA; format: cell-based, murine; conditions: for IL-6 production by LPS-activated cells / TNF-α secretion by LPS-activated cells: RAW 264.7, 2.5-40 µM, LPS 1 µg/ml 24 h; for Background levels of IL-6 and TNF-α in non-stimulated macrophages: RAW 264.7, no LPS (data not shown)
# Protocol: The effects of the test samples on IL-1β, TNF-α, and IL-6 production were measured by ELISA according to the manufacturer’s instructions. In brief, 50 µl of biotinylated antibody reagent and 50 µl of supernatant were added to a stripwell plate precoated with anti-mouse IL-1β, TNF-α, or IL-6 antibodies, which was then incubated at room temperature for 2 h. After washing the plate three times with washing buffer, 100 µl of diluted streptavidin-HRP concentrate was added to each well and the plate incubated at room temperature for 30 min. The washing process was repeated, then 100 µl of a premixed tetramethylbenzidine substrate solution was added to each well and the plate incubated at room temperature in the dark for 30 min. After addition of 100 µl of stop solution to each well, the absorbance at 450 nm of each well was measured on a microplate reader.
# as §1, §2
# [4] = test system: ATP-activated LPS-primed J774A.1 macrophages; assay: Intracellular ROS production (DCF fluorescence), ATP-induced; format: cell-based, murine
# Protocol: Intracellular ROS production was measured by detecting the fluorescence intensity of the 2’, 7’-dichlorofluorescein, the oxidation product of 2’, 7’-dichlorofluorescein diacetate (Molecular Probes, Eugene, OR). […] In another, J774A.1 macrophages (5 × 10^5/ml; 0.1 ml) were incubated with LPS (1 µg/ml) for 6 h, then vehicle, compound 1h (20 µM), or DPI (25 µM) was added for 30 min. 2’, 7’-dichlorofluorescein diacetate (2 µM) was then added for 30 min before incubation with ATP (5 mM) for the indicated time; while, in another, the order of addition of compound1h/DPI and LPS was reversed. The fluorescence intensity of 2’, 7’-dichlorofluorescein was detected at an excitation wavelength of 485 nm and an emission wavelength of 530 nm on a microplate absorbance reader (Bio-Rad Laboratories, Inc).
# In (A), J774A.1 macrophages (1 × 10^6/ml; 1 ml) were incubated with LPS (1 µg/ml) for 6 h, then with compound 1h (20 µM), the NADPH oxidase inhibitor DPI (25 µM), or DMSO (vehicle) for 30 min in the continued presence of LPS, then 2’,7’-dichlorofluorescein diacetate (2 µM) was added for 30 min, followed by ATP (5 mM) for the indicated time, then ROS levels were determined by measuring the mean fluorescence intensity (MFI) of the fluorophore carboxyl-DCF and expressing this value relative to that at time zero. In (B), J774A.1 macrophages (1 × 10^6/ml; 1 ml) were incubated with compound 1h (20 µM), DPI (25 µM), or DMSO (vehicle) for 30 min, then LPS (1 µg/ml) was added for 6 h; the cells were then incubated with 2’,7’-dichlorofluorescein diacetate (2 µM) for 30 min, then with ATP (5 mM) for the indicated time and ROS levels were measured by detection of the fluorescence intensity of the fluorophore carboxyl-DCF and expressed relative to that at time zero.
# [5] = test system: LPS-activated RAW 264.7 macrophages; assay: Intracellular ROS production (DCF fluorescence), LPS-induced; format: cell-based, murine; conditions: RAW 264.7, 30 min pretreatment; compound 1h 20 µM, NAC 10 mM
# Protocol: Intracellular ROS production was measured by detecting the fluorescence intensity of the 2’, 7’-dichlorofluorescein, the oxidation product of 2’, 7’-dichlorofluorescein diacetate (Molecular Probes, Eugene, OR). In one study, RAW 264.7 macrophages (5 × 10^5/ml; 0.1 ml) were incubated with vehicle, compound 1h (20 µM), or NAC (10 mM) for 30 min, then 2’, 7’-dichlorofluorescein diacetate (2 µM) was added for 30 min, then LPS was added for the indicated time. In another, J774A.1 macrophages (5 × 10^5/ml; 0.1 ml) were incubated with LPS (1 µg/ml) for 6 h, then vehicle, compound 1h (20 µM), or DPI (25 µM) was added for 30 min. 2’, 7’-dichlorofluorescein diacetate (2 µM) was then added for 30 min before incubation with ATP (5 mM) for the indicated time; while, in another, the order of addition of compound1h/DPI and LPS was reversed. The fluorescence intensity of 2’, 7’-dichlorofluorescein was detected at an excitation wavelength of 485 nm and an emission wavelength of 530 nm on a microplate absorbance reader (Bio-Rad Laboratories, Inc).
# To test whether compound 1h exerted its anti-inflammatory effect on LPS-activated cells by downregulation of ROS production, intracellular ROS production in LPS-activated RAW 264.7 macrophages was measured.
# Figure 5 Effect of compound 1h on ROS production and MAPK phosphorylation in LPS-activated macrophages. […]
# in vitro = conditions: mouse
# various cancer cells = test system: various cancer cells; parameters: method as in PMID 16468746; conditions: cited from earlier work
structure (smiles),measurement,setting,value
COc1cc(/C=C/C=C/C=C/C=C/c2[nH]ccc2Cl)oc(=O)c1 [1a],IC50,RAW 264.7 cells,< 10 µM
CCCCc1c(OC)cc(/C=C/C=C/C=C/C=C/c2[nH]ccc2Cl)oc1=O [1c],IC50,RAW 264.7 cells,< 10 µM
COc1cc(/C(C)=C/C=C/C=C/C=C/c2[nH]ccc2Cl)oc(=O)c1 [1d],IC50,RAW 264.7 cells,< 10 µM
CC\C(=C/C=C/C=C/C=C/c1[nH]ccc1Cl)c1cc(OC)c(C)c(=O)o1 [1f],IC50,RAW 264.7 cells,< 10 µM
CCCCc1c(OC)cc(/C(C)=C/C=C/C=C/C=C/c2[nH]ccc2Cl)oc1=O [1g],IC50,RAW 264.7 cells,< 10 µM
COc1cc(/C=C/C=C/C=C/C=C/c2sccc2Cl)oc(=O)c1 [1j],ED50 (inhibition of LPS-induced NO production),[1],29 ± 6 µM
same,IC50,RAW 264.7 cells,> 100 µM
COc1cc(/C=C/C=C/C=C/C=C/c2sccc2Cl)oc(=O)c1C [1k],ED50 (inhibition of LPS-induced NO production),[1],18 ± 2 µM
same,IC50,RAW 264.7 cells,> 100 µM
COc1cc(/C=C/C=C/C=C/C=C/c2ccccc2Cl)oc(=O)c1C [1l],ED50 (inhibition of LPS-induced NO production),[1],18 ± 3 µM
same,IC50,RAW 264.7 cells,> 100 µM
COc1cc(/C=C/C=C/C=C/C=C/c2cccc(Cl)c2)oc(=O)c1C [1m],ED50 (inhibition of LPS-induced NO production),[1],26 ± 3 µM
same,IC50,RAW 264.7 cells,> 100 µM
COc1cc(/C=C/C=C/C=C/C=C/c2c(Cl)ccn2S(C)(=O)=O)oc(=O)c1C [1n],NO production by LPS-activated cells,[1],decreased NO production by LPS-activated cells in a dose-dependent manner
same,ED50 (inhibition of LPS-induced NO production),[1],17 ± 2 µM
same,NO levels produced by non-activated cells,[1],did not alter NO levels produced by non-activated cells
same,COX-2 expression,[2],did not affect expression of COX-2
same,LPS-induced iNOS expression,[2],reduced LPS-induced iNOS expression
same,Concentration at which reduction of LPS-induced iNOS expression is significant,[2],40 µM
same,IL-6 production by LPS-activated cells,[3],significantly decreased IL-6 production by LPS-activated cells in a dose-dependent manner
same,TNF-α secretion by LPS-activated cells,[3],only slightly and non-significantly reduced
same,Background levels of IL-6 and TNF-α in non-stimulated macrophages,[3],none of the three compounds altered background levels of IL-6 and TNF-α
same,IC50,RAW 264.7 cells,> 100 µM
"c1ccc2c(c1)[I+]c1ccccc1-2 [DPI, diphenylene iodonium, reference compound]","ATP-induced ROS production, compound added after LPS priming","[4]; J774A.1, LPS 6 h, then compound 1h 20 µM or DPI 25 µM 30 min, ATP 5 mM 0-40 min",inhibited both processes
same,"ATP-induced ROS production, compound added 30 min before LPS priming","[4]; J774A.1, compound 1h 20 µM or DPI 25 µM 30 min, then LPS 6 h, then ATP 5 mM",inhibited both processes
"CC(=O)N[C@@H](CS)C(=O)O [NAC, N-acetyl cysteine, reference compound]",LPS-stimulated ROS production,[5],reduced ROS production
"COc1cc(/C=C/C=C/C=C/C=C/c2[nH]ccc2Cl)oc(=O)c1C [compound 1b, auxarconjugatin A]",IC50,in vitro,< 10 µM
"COc1cc(/C(C)=C/C=C/C=C/C=C/c2[nH]ccc2Cl)oc(=O)c1C [compound 1e, 12E-isorumbrin]",Cytotoxicity for various cancer cells,various cancer cells,shown to be cytotoxic for various cancer cells
same,IC50,in vitro,< 10 µM
Cc1c(O)cc(/C=C/C=C/C=C/C=C/c2[nH]ccc2Cl)oc1=O [compound 1i],NO production by LPS-activated cells,[1],decreased NO production by LPS-activated cells in a dose-dependent manner
same,ED50 (inhibition of LPS-induced NO production),[1],16 ± 2 µM
same,NO levels produced by non-activated cells,[1],did not alter NO levels produced by non-activated cells
same,COX-2 expression,[2],did not affect expression of COX-2
same,LPS-induced iNOS expression,[2],reduced LPS-induced iNOS expression
same,Concentration at which reduction of LPS-induced iNOS expression is significant,[2],40 µM
same,IL-6 production by LPS-activated cells,[3],significantly decreased IL-6 production by LPS-activated cells in a dose-dependent manner
same,TNF-α secretion by LPS-activated cells,[3],only slightly and non-significantly reduced
same,Background levels of IL-6 and TNF-α in non-stimulated macrophages,[3],none of the three compounds altered background levels of IL-6 and TNF-α
same,IC50,RAW 264.7 cells,> 100 µM
